Experimental data published in patent US6790447B1, “Peptides for treatment of autoimmune diseases” (priority 1994, dated 2004).

Tests used:
uveitis = experiment: Uveitogenicity after immunization with the peptides; assay type: in vivo; conditions: after immunization of objects with the peptides
Description: Of these peptides B27PD and PDSAg are uveitogenic, i.e., after immunization of objects with the peptides they develop uveitis.

IRBP induced uveitis = experiment: IRBP-induced uveitis after oral administration of antigens (oral tolerance); assay type: in vivo, Lewis rats; conditions: induction with IRBP, oral feeding; for clinical symptoms / clinical score for uveitis reduced to: compared to maximal disease in PBS-fed group
Description: (§1) Due to animal protection laws, the experiments were terminated three to four days after the last animals in the positive control groups diseased.
(§2) The histological evaluation consists of a grading of inflammatory signs in the tissue and destruction of the retina, the clinical grading refers to inflammatory signs of the conjunctiva and the anterior segment of the eye, which can be observed readily and are not necessarily correlated with the visual acuity.

[1] = test system: S-antigen-induced uveitis; experiment: S-antigen-induced uveitis after oral administration of antigens (oral tolerance); assay type: in vivo, Lewis rats; conditions: induction with S-antigen; for clinical symptoms reduced to: oral administration, compared to group fed control protein (ovalbumin), peptides 200 μg, proteins 1 mg, three doses every other day; for uveitis reduced by (histological evaluation): oral feeding, compared to ovalbumin fed control groups
Description: as §1, §2

Row | Substance | uveitogenic properties (uveitis) | therapeutic properties (IRBP induced uveitis) | clinical symptoms reduced to [1] [%] | uveitis reduced by (histological evaluation) [1] [%] | clinical symptoms / clinical score for uveitis reduced to (IRBP induced uveitis) [%]
1 | F-L-G-E-L-T-S-S-E-V-A-T-E-V (FLGELTSSEVATEV) [PDSAg] | uveitogenic | no therapeutic properties | 9 | 14 | 
2 | IRBP: interphotoreceptor-retinoid-binding protein, retinal protein |  |  |  |  | 25
3 | A-L-N-E-D-L-R-S-W-T-A-A-D-T (ALNEDLRSWTAADT) [B7PD, an irrelevant control peptide] | does not have any uveitogenic properties |  |  |  | 
4 | A-L-N-E-D-L-S-S-W-T-A-A-D-T (ALNEDLSSWTAADT) [B27PD, 14 mer peptide of the invention] | uveitogenic |  | 16 | 57 | 75
